Data from paper PMC10053770, “Assessment of the Pharmacokinetics, Disposition, and Duration of Action of the Tumour-Targeting Peptide CEND-1” (International Journal of Molecular Sciences, 2023).

Legend:
[1] = set-up: method as in PMID 35803294; conditions: phase I trial, monotherapy and in combination with chemotherapy drugs; cited from earlier work
[2] = Single-dose intravenous pharmacokinetics in mice; assay type: in vivo, mouse; conditions: for clearance: read-out: Cl_obs (converted); for Vd: read-out: V
Protocol: (§1) The in vivo pharmacokinetic profile of CEND-1 after a single dose was evaluated in four non-GLP animal studies including Sprague-Dawley rats, Beagle dogs, cynomolgus monkeys and BALB/c mice following the intravenous injection of CEND-1 at various doses (1, 5 and 50 mg/kg for rats, dogs and monkeys; 1.5, 4.5 and 13.5 mg/kg for mice) (Table 1). Blood samples were collected for pharmacokinetic evaluations pre-dose and at 1, 5, 10, 15 and 30 min, and 1, 2 and 6 h post-dose in rats, dogs and monkeys, and 3, 10, 30 and 90 min, and 4 and 8 h post-dose in mice.
(§2) Plasma CEND-1 was quantified by validated liquid chromatography coupled with a tandem mass spectrometry (LC/MS/MS) assay. Tolbutamide or leuprorelin acetate were used as internal standards. AB Sciex Triple Quad API 5500 (Sciex, Framingham, MA, USA), operated in the positive electrospray ionization (ESI) mode, was used to monitor the precursor to production ion transitions of m/z 495.4→69.9.
(§3) No formal sample size calculation was performed. Samples of 2–12 animals and 31 pancreatic cancer patients were considered acceptable to perform initial pharmacokinetic evaluations. The concentrations of CEND-1 were used to calculate PK parameters by employing a non-compartmental analysis (Phoenix^TM WinNonlin, version 6.1). The linear log trapezoidal algorithm, with a weighting of 1/Y*Y was used for parameter calculations. Mean PK parameters were calculated from individual animals in each treatment group. Concentrations below the LLOQ (if any) were excluded for the calculation of PK parameters. The mean values of PK parameters were calculated using Microsoft Excel version 2010.

[3] = Single-dose intravenous pharmacokinetics in cynomolgus monkeys; assay type: in vivo; conditions: cynomolgus monkey; for clearance: read-out: Cl_obs (converted); for Vd: read-out: V
Protocol: as §1, §2, §3

[4] = Single-dose intravenous pharmacokinetics in dogs; assay type: in vivo, dog; conditions: for clearance: read-out: Cl_obs (converted); for Vd: read-out: V
Protocol: as §1, with “([…];” for “(1, 5 and 50 mg/kg for rats, dogs and monkeys;”
as §2, §3

[5] = Single-dose intravenous pharmacokinetics in rats; assay type: in vivo, rat; conditions: for Vd: read-out: V; for clearance: read-out: Cl_obs (converted)
Protocol: as §1, with “([…];” for “(1, 5 and 50 mg/kg for rats, dogs and monkeys;”
as §2, §3

[6] = Detailed clinical and cage-side observations in pre-clinical species; assay type: in vivo, mice, rats, dogs and monkeys; conditions: any of the pre-clinical species tested, single IV dose
[7] = male, BALB/c mouse, M, n=3, 1.5 mg/kg single IV, plasma LC/MS/MS, non-compartmental, one time point per animal
[8] = male, BALB/c mouse, M, n=3, 4.5 mg/kg single IV, plasma LC/MS/MS, non-compartmental, one time point per animal
[9] = male, BALB/c mouse, M, n=3, 13.5 mg/kg single IV, plasma LC/MS/MS, non-compartmental, one time point per animal
[10] = male, M, n=3, 5 mg/kg single IV, plasma LC/MS/MS, non-compartmental, mean (SD)
[11] = male, M, n=3, 50 mg/kg single IV, plasma LC/MS/MS, non-compartmental, mean (SD)
[12] = Beagle dog, F, n=3, 5 mg/kg single IV, plasma LC/MS/MS, non-compartmental, mean (SD)
[13] = Beagle dog, F, n=5, 75 mg/kg single IV, plasma LC/MS/MS, non-compartmental, mean (SD)
[14] = female, Beagle dog, F, n=3, 1 mg/kg single IV, plasma LC/MS/MS, non-compartmental, mean (SD)
[15] = female, Beagle dog, F, n=5, 75 mg/kg single IV, plasma LC/MS/MS, non-compartmental, mean (SD)
[16] = male, Beagle dog, M, n=3, 1 mg/kg single IV, plasma LC/MS/MS, non-compartmental, mean (SD)
[17] = male, Beagle dog, M, n=3, 5 mg/kg single IV, plasma LC/MS/MS, non-compartmental, mean (SD)
[18] = male, Beagle dog, M, n=5, 75 mg/kg single IV, plasma LC/MS/MS, non-compartmental, mean (SD)
[19] = female, Sprague-Dawley rat, F, n=6, 1 mg/kg single IV, plasma LC/MS/MS, non-compartmental, one time point per animal
[20] = female, Sprague-Dawley rat, F, n=6, 5 mg/kg single IV, plasma LC/MS/MS, non-compartmental, one time point per animal
[21] = female, Sprague-Dawley rat, F, n=6, 75 mg/kg single IV, plasma LC/MS/MS, non-compartmental, one time point per animal
[22] = female, Sprague-Dawley rat, F, n=6, single IV, plasma LC/MS/MS, non-compartmental, one time point per animal
[23] = male, Sprague-Dawley rat, M, n=6, 1 mg/kg single IV, plasma LC/MS/MS, non-compartmental, one time point per animal
[24] = male, Sprague-Dawley rat, M, n=6, 5 mg/kg single IV, plasma LC/MS/MS, non-compartmental, one time point per animal
[25] = male, Sprague-Dawley rat, M, n=6, 75 mg/kg single IV, plasma LC/MS/MS, non-compartmental, one time point per animal
[26] = male, Sprague-Dawley rat, M, n=6, single IV, plasma LC/MS/MS, non-compartmental, one time point per animal

For `CC(=O)N[C@H]1CSSC[C@@H](C(N)=O)NC(=O)[C@H](CC(=O)O)NC(=O)[C@@H]2CCCN2C(=O)CNC(=O)[C@H](CCCCN)NC(=O)[C@H](CC(=O)O)NC(=O)CNC(=O)[C@H](CCCNC(=N)N)NC1=O` [CEND-1], the safety profile [1] is given as “acceptable safety profile”, the half-life ([2]; BALB/c, mouse, plasma, iv, mice, single intravenous dose, read-out: average plasma half-life) is given as ~25 min and the C0 ([2]; BALB/c, plasma, iv, mouse, dose level of 4–5 mg/kg, read-out: Cmax (C0)) is given as ~40000 ng/mL. For the same compound, the half-life ([2]; male, BALB/c, mouse, plasma, iv, 1.5 mg/kg, BALB/c mouse, M, n=3, 1.5 mg/kg single IV, plasma LC/MS/MS, non-compartmental, one time point per animal, read-out: t1/2 (converted)) was 18.4 min, the half-life ([2]; male, BALB/c, mouse, plasma, iv, 4.5 mg/kg, BALB/c mouse, M, n=3, 4.5 mg/kg single IV, plasma LC/MS/MS, non-compartmental, one time point per animal, read-out: t1/2 (converted)) was 20.6 min and the half-life ([2]; male, BALB/c, mouse, plasma, iv, 13.5 mg/kg, BALB/c mouse, M, n=3, 13.5 mg/kg single IV, plasma LC/MS/MS, non-compartmental, one time point per animal, read-out: t1/2 (converted)) was 32.8 min. The AUC(0-inf) [2, 7] was 1480 ng·h/mL, the C0 ([2]; male, BALB/c mouse, M, n=3, 1.5 mg/kg single IV, plasma LC/MS/MS, non-compartmental, one time point per animal, read-out: C0) was 10300 ng/mL and the clearance [2, 7] was 16.9 mL/min/kg. It also gave a Vd [2, 7] of 0.449 L/kg, an AUC(0-inf) [2, 8] of 3700 ng·h/mL and a C0 ([2]; male, BALB/c mouse, M, n=3, 4.5 mg/kg single IV, plasma LC/MS/MS, non-compartmental, one time point per animal, read-out: C0) of 40300 ng/mL. The clearance [2, 8] was 20.1 mL/min/kg, the Vd [2, 8] was 0.599 L/kg and the AUC(0-inf) [2, 9] was 10600 ng·h/mL. For the same compound, the C0 ([2]; male, BALB/c mouse, M, n=3, 13.5 mg/kg single IV, plasma LC/MS/MS, non-compartmental, one time point per animal, read-out: C0) was 68400 ng/mL, the clearance [2, 9] was 21.3 mL/min/kg and the Vd [2, 9] was 1.01 L/kg. The half-life ([3]; plasma, male cynomolgus monkeys, IV 5 and 50 mg/kg, read-out: average half-life) was ~55 min, the AUC(0-inf) [3, 10] was 28200 ng·h/mL and the C0 [3, 10] was 55100 ng/mL. For the same compound, the clearance [3, 10] was 2.98 mL/min/kg, the Vd [3, 10] was 0.204 L/kg and the half-life ([3]; male, M, n=3, 5 mg/kg single IV, plasma LC/MS/MS, non-compartmental, mean (SD), read-out: t1/2 (converted)) was 53.3 min. For the same compound, the AUC(0-inf) [3, 11] was 421000 ng·h/mL, the C0 [3, 11] was 602000 ng/mL and the clearance [3, 11] was 2.97 mL/min/kg. For the same compound, the Vd [3, 11] was 0.162 L/kg, the half-life ([3]; male, M, n=3, 50 mg/kg single IV, plasma LC/MS/MS, non-compartmental, mean (SD), read-out: t1/2 (converted)) was 57.4 min and the t1/2 ([4]; Beagle dog, F, n=3, 1 mg/kg single IV, plasma LC/MS/MS, non-compartmental, mean (SD)) was 0.668 (0.0312) h. For the same compound, the AUC(0-inf) [4, 12] was 20,443 (2530) h*ng/mL, the Cl_obs [4, 12] was 247 (32.9) mL/hr/kg and the V [4, 12] was 230 (14.6) mL/kg. The t1/2 [4, 12] was 0.648 (0.0486) h, the AUC(0-inf) [4, 13] was 323,936 (25,283) h*ng/mL and the t1/2 [4, 13] was 0.620 (0.0439) h. It also gave a half-life ([4]; Beagle, dog, plasma, dogs, single intravenous dose, read-out: average half-life) of ~40 min, a C0 [4, 14] of 4780 ng/mL and an AUC(0-inf) ([4]; female, Beagle dog, F, n=3, 1 mg/kg single IV, plasma LC/MS/MS, non-compartmental, mean (SD), read-out: AUC0-inf) of 3950 ng·h/mL. It also gave a clearance [4, 14] of 4.25 mL/min/kg, a Vd [4, 14] of 0.253 L/kg and a C0 ([4]; female, Beagle dog, F, n=3, 5 mg/kg single IV, plasma LC/MS/MS, non-compartmental, mean (SD)) of 25100 ng/mL. For the same compound, the C0 [4, 15] was 476000 ng/mL, the clearance [4, 15] was 3.88 mL/min/kg and the Vd [4, 15] was 0.208 L/kg. The C0 [4, 16] was 6010 ng/mL, the AUC(0-inf) ([4]; male, Beagle dog, M, n=3, 1 mg/kg single IV, plasma LC/MS/MS, non-compartmental, mean (SD), read-out: AUC0-inf) was 4030 ng·h/mL and the clearance [4, 16] was 4.22 mL/min/kg. For the same compound, the Vd [4, 16] was 0.241 L/kg, the half-life ([4]; male, Beagle dog, M, n=3, 1 mg/kg single IV, plasma LC/MS/MS, non-compartmental, mean (SD), read-out: t1/2 (converted)) was 39.9 min and the C0 [4, 17] was 30200 ng/mL. For the same compound, the AUC(0-inf) ([4]; male, Beagle dog, M, n=3, 5 mg/kg single IV, plasma LC/MS/MS, non-compartmental, mean (SD), read-out: AUC0-inf) was 20600 ng·h/mL, the clearance [4, 17] was 4.05 mL/min/kg and the Vd [4, 17] was 0.23 L/kg. For the same compound, the half-life ([4]; male, Beagle dog, M, n=3, 5 mg/kg single IV, plasma LC/MS/MS, non-compartmental, mean (SD), read-out: t1/2 (converted)) was 39.3 min, the C0 [4, 18] was 461000 ng/mL and the AUC(0-inf) ([4]; male, Beagle dog, M, n=5, 75 mg/kg single IV, plasma LC/MS/MS, non-compartmental, mean (SD), read-out: AUC0-inf) was 327000 ng·h/mL. The clearance [4, 18] was 3.83 mL/min/kg, the Vd [4, 18] was 0.204 L/kg and the half-life ([4]; male, Beagle dog, M, n=5, 75 mg/kg single IV, plasma LC/MS/MS, non-compartmental, mean (SD), read-out: t1/2 (converted)) was 36.9 min. It also gave a Cl_obs ([5]; Sprague-Dawley rat, F, n=6, 1 mg/kg single IV, plasma LC/MS/MS, non-compartmental, one time point per animal) of 9.37 mL/min/kg, a half-life ([5]; Sprague-Dawley, rat, plasma, rats, single intravenous dose, read-out: average half-life) of ~30 min and an AUC(0-inf) [5, 19] of 1750 ng·h/mL. The C0 [5, 19] was 3980 ng/mL, the Vd [5, 19] was 0.201 L/kg and the half-life ([5]; female, Sprague-Dawley rat, F, n=6, 1 mg/kg single IV, plasma LC/MS/MS, non-compartmental, one time point per animal, read-out: t1/2 (converted)) was 14.9 min. The AUC(0-inf) [5, 20] was 9750 ng·h/mL, the C0 [5, 20] was 28400 ng/mL and the clearance [5, 20] was 8.55 mL/min/kg. For the same compound, the Vd [5, 20] was 0.323 L/kg, the half-life ([5]; female, Sprague-Dawley rat, F, n=6, 5 mg/kg single IV, plasma LC/MS/MS, non-compartmental, one time point per animal, read-out: t1/2 (converted)) was 26.2 min and the AUC(0-inf) [5, 21] was 166000 ng·h/mL. For the same compound, the Vd [5, 21] was 0.254 L/kg, the half-life ([5]; female, Sprague-Dawley rat, F, n=6, 75 mg/kg single IV, plasma LC/MS/MS, non-compartmental, one time point per animal, read-out: t1/2 (converted)) was 23.5 min and the C0 [5, 22] was 436000 ng/mL. For the same compound, the clearance [5, 22] was 7.52 mL/min/kg, the AUC(0-inf) [5, 23] was 1770 ng·h/mL and the C0 [5, 23] was 4230 ng/mL. For the same compound, the clearance [5, 23] was 9.3 mL/min/kg, the Vd [5, 23] was 0.64 L/kg and the half-life ([5]; male, Sprague-Dawley rat, M, n=6, 1 mg/kg single IV, plasma LC/MS/MS, non-compartmental, one time point per animal, read-out: t1/2 (converted)) was 48.3 min. It also gave an AUC(0-inf) [5, 24] of 9060 ng·h/mL, a C0 [5, 24] of 24300 ng/mL and a clearance [5, 24] of 9.2 mL/min/kg. The Vd [5, 24] was 0.366 L/kg, the half-life ([5]; male, Sprague-Dawley rat, M, n=6, 5 mg/kg single IV, plasma LC/MS/MS, non-compartmental, one time point per animal, read-out: t1/2 (converted)) was 27.6 min and the AUC(0-inf) [5, 25] was 215000 ng·h/mL. The Vd [5, 25] was 0.171 L/kg, the half-life ([5]; male, Sprague-Dawley rat, M, n=6, 75 mg/kg single IV, plasma LC/MS/MS, non-compartmental, one time point per animal, read-out: t1/2 (converted)) was 20.5 min and the C0 [5, 26] was 469000 ng/mL. For the same compound, the clearance [5, 26] was 5.8 mL/min/kg and the “detailed clinical observations and cage-side observations” value [6] was “no test-article-related abnormalities”.
